In ChEMBL document CHEMBL1201862, “PubChem BioAssay data set” (2004):
Each block holds one compound with its values, some of them ahead of it. The source made the active and inactive calls.

Columns and labels:
[1] = biological target: Potassium voltage-gated channel subfamily KQT member 2 (Rattus norvegicus, UniProt O88943); test: KCNQ2 potassium channel inhibitors, dose response, cell-based, automated electrophysiology, set II, rat KCNQ2 (AID 588637); assay type: functional
[2] = biological target: T1, Zinc finger protein mex-5 (Caenorhabditis elegans, UniProt Q9XUB2); test: MEX-5/TCR-2 RNA interaction inhibitors, dose response, biochemical, C. elegans, fluorescence polarization (AID 1960)
T1 sequence (Q9XUB2 whole entry): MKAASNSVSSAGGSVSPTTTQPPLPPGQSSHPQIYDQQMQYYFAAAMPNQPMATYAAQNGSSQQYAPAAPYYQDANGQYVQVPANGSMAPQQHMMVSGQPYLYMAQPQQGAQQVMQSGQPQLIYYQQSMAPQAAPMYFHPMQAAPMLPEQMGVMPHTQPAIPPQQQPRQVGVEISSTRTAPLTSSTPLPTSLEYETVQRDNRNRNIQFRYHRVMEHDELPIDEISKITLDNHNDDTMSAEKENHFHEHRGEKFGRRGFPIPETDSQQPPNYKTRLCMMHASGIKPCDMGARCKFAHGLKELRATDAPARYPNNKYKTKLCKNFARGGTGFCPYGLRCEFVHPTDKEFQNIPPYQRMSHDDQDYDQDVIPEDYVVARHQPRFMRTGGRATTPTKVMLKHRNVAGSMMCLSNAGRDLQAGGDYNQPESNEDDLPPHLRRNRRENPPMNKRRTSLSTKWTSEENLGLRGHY

[3] = biological target: T2, Sentrin-specific protease 1 (Homo sapiens, UniProt Q9P0U3); test: Dose response confirmation of small molecule inhibitors of the catalytic domain of the SUMO protease, SENP1 in a FRET assay.; assay type: functional; details: read-out: IC50_Mean
[4] = biological target: T3, RNA-binding protein pos-1 (Caenorhabditis elegans, UniProt G5EF15); test: inhibitors of POS-1/mex-3 RNA binding, dose response, biochemical, fluorescence polarization (AID 1964);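 further: purified POS-1 fused to maltose binding protein made in E. coli; potency of compounds blocking POS-1 binding to fluorescent RNA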
T3 sequence (G5EF15 whole entry): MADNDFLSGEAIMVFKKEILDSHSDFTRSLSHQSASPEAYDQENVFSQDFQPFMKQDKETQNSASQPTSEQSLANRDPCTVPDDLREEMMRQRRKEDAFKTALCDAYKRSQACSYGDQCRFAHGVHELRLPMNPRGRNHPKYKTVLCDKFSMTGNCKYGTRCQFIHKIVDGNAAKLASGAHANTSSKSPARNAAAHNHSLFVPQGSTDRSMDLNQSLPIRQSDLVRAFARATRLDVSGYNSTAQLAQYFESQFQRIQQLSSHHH

[5] = biological target: T2, Sentrin-specific protease 1; test: potency of human SENP1 inhibitors, dose response, biochemical, kinetic FRET (AID 651697); assay type: functional; details: read-out: IC50_Mean
[6] = biological target: T4, Leucine aminopeptidase (Plasmodium falciparum 3D7, UniProt Q8IL11); test: P. falciparum M17LAP inhibitors, primary screen, biochemical, fluorogenic H-Leu-NHMec substrate, 1536-well (AID 1619); assay type: functional
T4 sequence (Q8IL11 whole entry): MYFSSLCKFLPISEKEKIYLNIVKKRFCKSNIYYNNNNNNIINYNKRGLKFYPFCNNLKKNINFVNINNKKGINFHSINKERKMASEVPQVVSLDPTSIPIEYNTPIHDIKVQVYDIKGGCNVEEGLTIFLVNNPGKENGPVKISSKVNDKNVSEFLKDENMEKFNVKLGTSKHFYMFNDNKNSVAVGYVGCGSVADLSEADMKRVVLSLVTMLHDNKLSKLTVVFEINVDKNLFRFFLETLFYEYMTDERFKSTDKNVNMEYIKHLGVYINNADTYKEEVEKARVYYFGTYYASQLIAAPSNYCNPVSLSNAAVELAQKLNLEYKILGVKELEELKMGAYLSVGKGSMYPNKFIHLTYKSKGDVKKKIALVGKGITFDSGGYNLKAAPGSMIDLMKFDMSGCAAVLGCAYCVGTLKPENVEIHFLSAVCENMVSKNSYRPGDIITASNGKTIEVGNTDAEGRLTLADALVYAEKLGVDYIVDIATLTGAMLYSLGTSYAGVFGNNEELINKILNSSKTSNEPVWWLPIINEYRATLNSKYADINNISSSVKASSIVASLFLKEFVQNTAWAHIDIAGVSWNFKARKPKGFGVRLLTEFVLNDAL

[7] = biological target: Melanocortin receptor 4 (Homo sapiens, UniProt P32245); assay type: functional, cell-based;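 further: Cell-based assay with luminescence read-out, confirmatory dose-response testing for agonist activity of biased ligands at MC4R; human U2OS cells with tagged receptor and beta-arrestin; potency of agonists that increase receptor coupling to beta-arrestin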
[8] = biological target: T5, Interleukin-8 (Homo sapiens, UniProt P10145); test: Dose Response confirmation of uHTS small molecule hits for cystic fibrosis induced NFkb Inhibitors in a PAF-induced IL8 counterscreen.; assay type: functional; details: read-out: IC50_Mean
T5 sequence (P10145 whole entry): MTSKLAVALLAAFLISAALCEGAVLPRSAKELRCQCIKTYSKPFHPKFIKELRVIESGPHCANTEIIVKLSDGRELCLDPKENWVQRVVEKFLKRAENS

[9] = biological target: T5, Interleukin-8; test: Dose Response confirmation of uHTS small molecule hits for cystic fibrosis induced NFkb Inhibitors in a TNFa-induced IL8 counterscreen.; assay type: functional; details: read-out: IC50_Mean
[10] = NIH-3T3 fibroblast cytotoxicity, dose response, cytotoxicity control, cell-based, fluorescence, Alamar Blue, secondary assay (AID 2327); assay type: functional;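 further: NIH-3T3 mouse fibroblasts cultured with fluconazole at 8 µg/mL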
[11] = C. albicans growth with fluconazole, confirmation, fluorescence, retest (AID 2467); assay type: functional, cell-based
[12] = biological target: T6, DNA repair and recombination protein RAD54-like (Homo sapiens, UniProt Q92698); test: inhibitors of human RAD54 branch migration, confirmation, biochemical, fluorescence, cherry-picked samples, dose series (AID 651657); assay type: functional
T6 sequence (Q92698 whole entry): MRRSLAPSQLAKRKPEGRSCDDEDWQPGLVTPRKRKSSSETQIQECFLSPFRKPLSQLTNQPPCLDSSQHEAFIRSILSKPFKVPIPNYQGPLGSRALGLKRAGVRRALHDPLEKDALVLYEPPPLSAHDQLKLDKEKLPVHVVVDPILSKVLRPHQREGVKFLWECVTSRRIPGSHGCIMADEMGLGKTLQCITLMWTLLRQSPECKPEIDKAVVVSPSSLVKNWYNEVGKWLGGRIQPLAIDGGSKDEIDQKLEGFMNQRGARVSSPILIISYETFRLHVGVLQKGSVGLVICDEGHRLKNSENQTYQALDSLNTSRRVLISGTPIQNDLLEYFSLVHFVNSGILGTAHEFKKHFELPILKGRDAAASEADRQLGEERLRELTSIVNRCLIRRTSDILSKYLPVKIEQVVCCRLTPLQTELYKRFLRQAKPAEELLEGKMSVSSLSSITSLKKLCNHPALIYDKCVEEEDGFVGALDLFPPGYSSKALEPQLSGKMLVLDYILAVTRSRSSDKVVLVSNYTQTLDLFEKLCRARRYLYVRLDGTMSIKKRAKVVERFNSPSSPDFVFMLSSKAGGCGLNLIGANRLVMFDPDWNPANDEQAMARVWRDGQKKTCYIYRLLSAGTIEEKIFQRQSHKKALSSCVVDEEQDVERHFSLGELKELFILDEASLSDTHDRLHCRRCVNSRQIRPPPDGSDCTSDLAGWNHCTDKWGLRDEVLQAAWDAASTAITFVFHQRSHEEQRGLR

[13] = biological target: T7, DNA repair protein RAD52 homolog (Homo sapiens, UniProt P43351); assay type: functional, biochemical
T7 sequence (P43351 whole entry): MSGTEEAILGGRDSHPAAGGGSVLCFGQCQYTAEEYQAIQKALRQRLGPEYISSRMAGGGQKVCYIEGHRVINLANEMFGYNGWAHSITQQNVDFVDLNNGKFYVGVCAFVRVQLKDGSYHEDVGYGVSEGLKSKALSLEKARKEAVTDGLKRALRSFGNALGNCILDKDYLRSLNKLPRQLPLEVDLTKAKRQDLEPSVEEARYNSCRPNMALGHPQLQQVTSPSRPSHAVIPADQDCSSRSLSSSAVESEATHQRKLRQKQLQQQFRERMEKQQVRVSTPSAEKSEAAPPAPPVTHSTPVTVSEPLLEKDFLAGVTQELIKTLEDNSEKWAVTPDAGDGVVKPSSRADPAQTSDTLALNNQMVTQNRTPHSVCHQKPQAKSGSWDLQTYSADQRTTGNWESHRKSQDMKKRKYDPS

[14] = MDA-MB-231 cell growth inhibition, dose response, cytotoxicity control for RAD54 inhibitor project, CellTiter-Glo luminescence, cherry-pick (AID 651692); assay type: functional, cell-based
[15] = biological target: Paired box protein Pax-8 (Homo sapiens, UniProt Q06710); test: inhibitors of PAX8-driven TPO luciferase reporter, dose response, RMG-I cells, cherry-pick (AID 687027); assay type: functional, cell-based;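 further: luciferase reporter driven by Pax8 target thyroperoxidase promoter measured by SteadyGlo luminescence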
[16] = Shn3 3'UTR reporter inhibitors, dose response, cell-based, Clone20 osteoblasts, firefly luciferase, cherry-picked (AID 624132); assay type: functional;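 further: firefly luciferase luminescence from reporter carrying the Shn3 3'UTR in osteoblasts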
[17] = control 3'UTR Renilla luciferase suppression, dose response, counter-screen for Shn3 inhibitor project, cell-based, Clone20-Shn3RL, cherry-picked (AID 624133); assay type: functional
[18] = Fluorescence-based cell-based high throughput dose response assay for inhibitors of the interaction of nucleotide-binding oligomerization domain containing 2 (NOD2) and the receptor-interacting serine-threonine kinase 2 (RIPK2).; assay type: functional; details: Homo sapiens
[19] = HepG2 cell cytotoxicity, dose response, cytotoxicity control for Shn3 inhibitor project, CellTiter-Glo, cherry-picked (AID 624134); assay type: functional, cell-based
[20] = biological target: T8, Neuropeptides B/W receptor type 1 (Homo sapiens, UniProt P48145); test: GPR7 antagonist potency, late-stage follow-up, cell-based, fluorescence, dose response, set 6 (AID 588583); assay type: functional
T8 sequence (P48145 whole entry): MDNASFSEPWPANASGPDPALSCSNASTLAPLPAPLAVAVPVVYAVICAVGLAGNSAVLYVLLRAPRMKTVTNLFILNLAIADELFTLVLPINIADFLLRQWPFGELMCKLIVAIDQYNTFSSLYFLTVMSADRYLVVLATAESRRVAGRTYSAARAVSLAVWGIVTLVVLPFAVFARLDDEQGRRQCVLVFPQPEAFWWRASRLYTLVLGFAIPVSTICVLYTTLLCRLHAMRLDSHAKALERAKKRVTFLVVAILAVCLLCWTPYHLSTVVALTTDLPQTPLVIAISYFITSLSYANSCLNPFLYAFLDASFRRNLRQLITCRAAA

[21] = biological target: Melanin-concentrating hormone receptor 1 (Homo sapiens, UniProt Q99705); test: Late-stage fluorescence-based counterscreen for antagonists of the G-protein coupled receptor 7 (GPR7): cell-based dose response assay to identify antagonists of the melanin-concentrating hormone receptor 1 (MCHR1) Set 6.; assay type: functional
[22] = Luminescence Cell-Based Dose Retest to Confirm Inhibitors of Cancer Stem Cells. [Related pubchem assays (depositor defined):AID2717, AID2721]; assay type: functional; details: Homo sapiens
[23] = system: INS1; test: beta cell apoptosis inhibitors, cytokine rescue, dose response, luminescence, retest (AID 449756); assay type: functional, cell-based; details: Rattus norvegicus;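 further: cell death triggered by IL-1 beta plus TNF-alpha plus IFN-gamma mixture; protective hits raise ATP signal compared with cytokine alone wells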
[24] = cytotoxicity in NIH3T3 fibroblasts, dose response, cytotoxicity control for HSP40 inhibitor project, cell-based, CellTiter-Glo luminescence, cherry-pick, set 2 (AID 624265); assay type: functional
[25] = Luminescence-based counterscreen assay for KLF5 inhibitors: dose response cell-based high throughput screening assay to identify cytotoxic compounds using the IEC-6 intestinal epithelial cell line. [Related pubchem assays: 1700 (Primary screen.), 1834 (Confirmation screen.), 1858 (Summary AID.), 1905 (Counterscreen.)]; assay type: functional

T2 sequence (Q9P0U3 whole entry, the tested form may be a part): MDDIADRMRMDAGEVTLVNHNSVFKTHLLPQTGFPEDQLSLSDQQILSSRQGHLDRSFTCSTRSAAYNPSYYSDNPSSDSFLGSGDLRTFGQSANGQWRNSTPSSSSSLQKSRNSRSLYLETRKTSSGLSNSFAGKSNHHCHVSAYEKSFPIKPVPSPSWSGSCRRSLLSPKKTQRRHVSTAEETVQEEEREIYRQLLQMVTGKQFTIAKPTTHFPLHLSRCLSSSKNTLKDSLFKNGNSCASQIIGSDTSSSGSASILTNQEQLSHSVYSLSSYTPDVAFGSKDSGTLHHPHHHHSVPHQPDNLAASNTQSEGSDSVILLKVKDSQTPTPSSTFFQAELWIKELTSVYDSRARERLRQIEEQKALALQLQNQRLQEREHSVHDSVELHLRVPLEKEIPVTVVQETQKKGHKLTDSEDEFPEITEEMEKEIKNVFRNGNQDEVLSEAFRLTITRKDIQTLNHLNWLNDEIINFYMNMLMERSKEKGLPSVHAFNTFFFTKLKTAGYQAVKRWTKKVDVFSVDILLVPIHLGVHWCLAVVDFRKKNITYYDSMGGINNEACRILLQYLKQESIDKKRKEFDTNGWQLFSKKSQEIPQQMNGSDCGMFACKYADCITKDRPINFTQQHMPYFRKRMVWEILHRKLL
Chain of Melanin-concentrating hormone receptor 1 (Q99705 whole entry): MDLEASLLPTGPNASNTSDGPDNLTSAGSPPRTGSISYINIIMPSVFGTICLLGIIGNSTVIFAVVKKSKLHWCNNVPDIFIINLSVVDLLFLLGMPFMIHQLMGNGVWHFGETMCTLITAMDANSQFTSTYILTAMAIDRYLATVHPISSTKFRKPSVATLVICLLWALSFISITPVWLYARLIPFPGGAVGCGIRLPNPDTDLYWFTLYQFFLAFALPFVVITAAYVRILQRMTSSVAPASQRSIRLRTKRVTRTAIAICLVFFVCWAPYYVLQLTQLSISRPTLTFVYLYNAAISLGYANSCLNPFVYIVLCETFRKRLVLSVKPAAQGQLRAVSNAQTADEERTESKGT
Chain of Paired box protein Pax-8 (Q06710 whole entry): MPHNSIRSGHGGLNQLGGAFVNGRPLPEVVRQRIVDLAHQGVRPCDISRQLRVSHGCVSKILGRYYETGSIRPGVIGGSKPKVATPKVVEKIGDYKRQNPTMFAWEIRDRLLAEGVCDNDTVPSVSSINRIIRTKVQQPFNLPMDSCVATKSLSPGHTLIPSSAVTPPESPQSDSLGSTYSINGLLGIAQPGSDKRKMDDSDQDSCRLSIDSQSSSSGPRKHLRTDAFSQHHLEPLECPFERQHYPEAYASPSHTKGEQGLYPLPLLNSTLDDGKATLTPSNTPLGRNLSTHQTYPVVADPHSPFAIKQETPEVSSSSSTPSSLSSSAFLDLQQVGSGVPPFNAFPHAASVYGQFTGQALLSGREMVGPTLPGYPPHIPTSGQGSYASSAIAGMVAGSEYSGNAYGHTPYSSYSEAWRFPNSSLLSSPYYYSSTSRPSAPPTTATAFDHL
Chain of Potassium voltage-gated channel subfamily KQT member 2 (O88943 whole entry): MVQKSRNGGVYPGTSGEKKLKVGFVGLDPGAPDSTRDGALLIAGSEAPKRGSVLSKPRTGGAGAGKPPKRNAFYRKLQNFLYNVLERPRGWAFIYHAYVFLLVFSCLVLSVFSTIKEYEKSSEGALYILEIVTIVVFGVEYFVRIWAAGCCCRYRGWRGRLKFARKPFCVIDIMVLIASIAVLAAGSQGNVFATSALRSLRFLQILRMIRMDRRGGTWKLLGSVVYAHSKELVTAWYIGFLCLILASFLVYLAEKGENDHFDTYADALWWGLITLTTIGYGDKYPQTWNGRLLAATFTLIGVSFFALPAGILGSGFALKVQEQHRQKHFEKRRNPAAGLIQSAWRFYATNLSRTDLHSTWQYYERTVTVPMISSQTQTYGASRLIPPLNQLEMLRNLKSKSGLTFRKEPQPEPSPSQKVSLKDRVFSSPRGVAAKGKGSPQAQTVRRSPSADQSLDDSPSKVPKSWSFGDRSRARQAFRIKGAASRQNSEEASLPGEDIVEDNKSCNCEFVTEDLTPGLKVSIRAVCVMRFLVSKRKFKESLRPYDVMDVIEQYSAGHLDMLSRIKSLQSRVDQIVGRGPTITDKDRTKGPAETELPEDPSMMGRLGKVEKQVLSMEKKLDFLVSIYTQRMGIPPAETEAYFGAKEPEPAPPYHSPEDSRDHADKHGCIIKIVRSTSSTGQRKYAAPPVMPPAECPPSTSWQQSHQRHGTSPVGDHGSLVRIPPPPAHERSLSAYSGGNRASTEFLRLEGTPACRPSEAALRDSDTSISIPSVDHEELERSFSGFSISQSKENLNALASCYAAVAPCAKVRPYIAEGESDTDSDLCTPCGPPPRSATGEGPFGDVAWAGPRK
Chain of Melanocortin receptor 4 (P32245 whole entry): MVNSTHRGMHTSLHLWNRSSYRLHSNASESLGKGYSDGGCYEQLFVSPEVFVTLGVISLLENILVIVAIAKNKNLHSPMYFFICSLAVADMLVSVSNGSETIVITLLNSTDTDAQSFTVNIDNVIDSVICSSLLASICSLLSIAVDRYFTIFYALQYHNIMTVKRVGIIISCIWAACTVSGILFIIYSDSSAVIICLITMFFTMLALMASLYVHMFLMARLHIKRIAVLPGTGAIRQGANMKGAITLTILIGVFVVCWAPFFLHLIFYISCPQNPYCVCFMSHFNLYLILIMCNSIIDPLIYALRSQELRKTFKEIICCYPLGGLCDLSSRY

- IC50 [1]: 0.634 µM (active)
Compound: COc1cc(-c2cc(C(=O)N(C)Cc3ccccc3)c3ccccc3n2)cc(OC)c1OC

- EC50 [2]: > 300 µM (inconclusive)
- IC50 [3]: 20.9 µM (inactive)
- EC50 [4]: > 300 µM (inconclusive)
- IC50 [5]: 38.6 µM (inactive)
Compound: COc1ccc2c(c1)c1nc3ccccc3nc1n2CCn1c(=O)oc2ccccc21

- IC50 [6]: 8.47 µM (active)
- EC50 [7]: > 89.2 µM (inactive)
Compound: CC(C)c1ccc(NC(=O)CSc2ncccc2C(=O)Oc2cccc([N+](=O)[O-])c2)cc1

Compound: O=C(Oc1cc2oc(=O)cc(-c3ccccc3)c2cc1Cl)C1CCCCC1
- IC50 [8]: 9.8 µM (active)
- IC50 [9]: > 79 µM (inactive)
- EC50 [10]: > 150 µM (inactive)
- EC50 [11]: 2.32 µM (active)

Compound: CC(=O)Nc1cc(-c2cccc(C(=O)NCCN(C)C)c2)cn2c(-c3ccc(C(C)=O)cc3)cnc12
- AC50 [12]: 16.1 µM (active)
- AC50 [13]: 2.12 µM (active)
- AC50 [14]: 31.8 µM (active)

Compound: C=C1C(=O)[C@]23C[C@H]1CC[C@H]2[C@]1(C)[C@@H](OC(C)=O)CC[C@@](C)(C(=O)OC)[C@H]1C[C@@H]3OC(C)=O
- AC50 [15]: 3.62 µM (active)
- AC50 [16]: 5.99 µM (active)
- AC50 [17]: 5.01 µM (active)
- IC50 [18]: 3.1 µM (active)
- AC50 [19]: 13.6 µM (active)

- IC50 [20]: 3.99 µM (active)
- IC50 [21]: 3.99 µM (active)
Compound: Cc1c(C(C#N)c2ccccc2)cnn(Cc2cccc3ccccc23)c1=O (configuration not stated)

- IC50 [20]: > 20 µM (inactive)
- IC50 [21]: > 20 µM (inactive)
Compound: COc1ccc(Oc2c(Cl)cnn(Cc3cc(-c4ccccc4)n(-c4ccccc4)n3)c2=O)cc1

Compound: Cc1cc(-c2ccccc2)n(-c2cc(N/N=C/c3ccccc3O)ncn2)n1
- AC50 [22]: 0.703 µM (active)
- AC50 [23]: 4.06 µM (active)
- AbsAC35_uM [24]: 52.65 µM
- IC50 [25]: 9.65 µM (active)
